Test results: patent publication EP4606382A1, “INHIBITORS OF TANGO1 ACTIVITY AND METHODS OF USE THEREOF” (Fundació Centre de Regulació Genòmica, priority 2024, dated 2025)
Ends that are not written are not given here.

System: normal human skin fibroblasts
Assay: LDH release cytotoxicity assay
Format: cell-based
Details: primary human skin fibroblasts
Procedure: To test if the peptides efficiently reduce collagen secretion also in primary cells derived from human individuals, normal human skin fibroblasts, the key producers of collagen in connective tissues, were treated with the peptides P2 and P5.
Cytotoxic effects induced by peptide treatment were determined by lactate dehydrogenase (LDH) levels in fibroblast supernatants using Cytotoxicity Assay (Promega G1780) according to the manufacturer's instructions.

| Substance | cytotoxic effects (LDH release) |
| --- | --- |
| LEKEEKLSKVDEKISHATEELETYRKRAKDLGLRKRLRKFRNK-NH2 [Peptide P5] | neither P2 nor P5 nor P2+P5 exerted cytotoxic effects |
| LRQKVEILNELYQQKEMALQKKLSQEEYERGLRKRLRKFRNK-NH2 [Peptide P2] | neither P2 nor P5 nor P2+P5 exerted cytotoxic effects |
